Assay: gradient 5% acetonitrile 3 min, to 50% in 2 min, to 85% in 15 min, held 3 min, 100 µL/min
Details: column: Zorbax Extend-C18 2.1 x 50 mm; eluents: water / acetonitrile, 0.1% formic acid
How it was run: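 Mixtures of ~100 pure standards were chromatographed on a Zorbax Extend-C18 column (2.1 × 50 mm, 1.8 μm) at 100 μL/min using water and acetonitrile, each with 0.1% formic acid. Detection used a quadrupole time-of-flight mass spectrometer in positive and negative ionization mode, and data collection spanned 3 months. Retention time was obtained from adduct peaks picked computationally and each checked manually.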

Row | SMILES | RP-LC retention time [s]
1 | CC(C)OC(=O)COC(=O)c1cn(-c2ccc(F)cc2)c(=O)c2ccccc12 | 1090
2 | Cc1ccc(NC(=O)N2CCC(n3c(C(F)(F)F)nc4cccnc43)CC2)cc1 | 856
3 | COC(=O)C1=CN(C2CC2)c2cc(N3CCN(c4ccccn4)CC3)c(F)cc2S1(=O)=O | 637
4 | CO[C@H]1C(=O)N(C2CCN(C(=O)Nc3ccc4c(c3)OCCO4)CC2)[C@H]1c1ccncc1 | 582
5 | c1ccc(-c2nnc(Cc3nc(-c4ccc5c(c4)OCO5)no3)o2)cc1 | 957
6 | O=C(NC1CCN(Cc2ccccc2)CC1)C1CCN(c2cnc3nccnc3c2)CC1 | 570
7 | Cc1nc(-c2ccc(-c3noc(-c4ccncc4)n3)cc2)cs1 | 1050
8 | CCCn1ccc2sc(C)c(C(=O)NC3CCCCCC3)c2c1=O | 897
9 | Cc1ccsc1C(=O)NC1(c2nc(-c3cnccn3)no2)CCCCC1 | 806
10 | CCOC(=O)c1sc(NC(=O)C(C)Oc2ccc(OC)cc2)nc1C (stereo not drawn) | 996
11 | Cn1nc(-c2nnc(-c3ccc(F)cc3)o2)c2c1CCN(S(=O)(=O)c1ccc(Cl)s1)C2 | 1010
12 | Cc1nnc2ccc(N3CCN(C(=O)Cc4cccc5ccccc45)CC3)nn12 | 660
13 | O=C(NCCC1=CCCCC1)C1CCCN(c2cnc3nccnc3c2)C1 (stereo not drawn) | 766
14 | Cc1cnc(C2CCOCC2)n1C1CCCN(Cc2c[nH]c3ccccc23)C1 (stereo not drawn) | 557
15 | CCN1C(=O)c2cccnc2Sc2cc(NC(=O)C3CCCC3)ccc21 | 816
16 | CCOc1ccc(-c2nc(-c3ccc4c(c3)oc(=O)n4C)no2)cc1OCC | 1110
17 | O=S(=O)(c1ccc2nc(N3CCN(c4ccccc4F)CC3)ccc2c1)N1CCCC1 | 998
18 | Cc1ccnc(N2CCC(C(=O)NCc3ccc(CN4CCCCCC4)o3)CC2)n1 | 567
19 | CCc1noc(-c2ccnc(-n3cnc(C(=O)NCC(C)C)c3)c2)n1 | 983
20 | COc1ccc(NC(=O)N2CCC3(C2)C(=O)Nc2ccccc23)cc1OC (stereo not drawn) | 676

Row | SMILES | RP-LC retention time [s]
21 | CC1CN(C(=O)N2CCC(C(=O)N3CCN(c4ccccn4)CC3)CC2)c2cc(Cl)ccc2O1 (stereo not drawn) | 672
22 | O=C(Nc1ccc(CN2CCN(c3ccccn3)CC2)cc1)c1ccccc1C(F)(F)F | 564
23 | COc1ccc(NC(=O)c2cn3c(n2)CSCC3)c(C)c1 | 674
24 | CCCN1C(=O)c2[nH]nc(-c3cccc(OC)c3)c2C1c1cccnc1 (stereo not drawn) | 669
25 | O=C(Nc1cccn2c(C3CCC3)nnc12)c1ccco1 | 696
26 | FC(F)(F)c1cccc(N2CCN(c3ncnc4sccc34)CC2)c1 | 987
27 | CCCn1cnc2cc(CNC(=O)CCc3ccccc3)ccc21 | 640
28 | COc1ccc(-c2nnc(-c3ccc(C)c(S(=O)(=O)N4CCSCC4)c3)o2)cc1OC | 970
29 | O=C(NCc1cc(F)ccc1F)C1CCN(c2cncnc2N2CCCCC2)CC1 | 709
30 | CC1=CC(C)(C)N=C2SC(c3ccc(N)cc3)=NN12 | 635
31 | CCOc1ccccc1NC(=O)N1CCCC(C)(C(=O)NCc2cccc(OC)c2)C1 (stereo not drawn) | 958
32 | Cc1cc(=O)n(CC(=O)Nc2ccc3c(c2)OCO3)c(N2CCOCC2)n1 | 644
33 | CN1CCC(N2CCN(S(=O)(=O)c3ccccc3C(F)(F)F)CC2)C1=O (stereo not drawn) | 594
34 | O=C(COc1ccc(F)cc1)N1CC(n2cc(COCC3CC3)nn2)C1 | 736
35 | CCCCNC(=O)c1cc(NC(=O)CC)cc2nc(C)ccc12 | 595
36 | O=C(CSc1nc(N2CCc3ccccc3C2)nc2ccccc12)NC1CCCCC1 | 728
37 | O=C([C@@H]1C[C@H](F)CN1C(=O)Nc1cccc(C(F)(F)F)c1)N1CCOCC1 | 698
38 | O=C(Nc1cnc(N2CCCC2)nc1)c1ccccc1C(F)(F)F | 740
39 | CCOC(=O)c1c(S(=O)(=O)N2CCC(C(=O)NCc3cccc(OC)c3)CC2)c(C)n(C)c1C | 772
40 | CN(C(=O)Cc1ccc(Cl)c(Cl)c1)[C@@H](CN1CCCC1)c1ccccc1 | 718

Row | SMILES | RP-LC retention time [s]
41 | O=C(Nc1cc(-c2cccs2)no1)c1cc(F)cc(F)c1 | 1010
42 | CN1CCN(CCCNC(=O)c2ccc(CS(=O)c3cccc(Cl)c3)o2)CC1 (stereo not drawn) | 527
43 | O=C(NC1CCCCC1)C1COC2(CCN(C(=O)c3ccco3)CC2)N1C(=O)c1ccccc1 (stereo not drawn) | 748
44 | COc1ccc(C2(c3nc(C4CC(=O)N(c5ccc(C)cc5)C4)no3)CC2)cc1 (stereo not drawn) | 1060
45 | CCOC(=O)C1CCN(C(=O)C2CCCN(c3nc4ccccc4[nH]3)C2)CC1 (stereo not drawn) | 646
46 | Cc1ccc(C)c(S(=O)(=O)N2CC(N(C(=O)NC(C)C)C3CCOCC3)C2)c1 | 689
47 | Fc1cccc(-c2noc(-c3ccc(N4CCN(CCOc5ccc(Cl)cc5)CC4)nc3)n2)c1 | 920
48 | COc1cccc(-c2ccnc3nc(-c4ccccc4OC)nn23)c1 | 860
49 | O=C(OCc1nc2ccccc2s1)c1ccc2c(c1)OCCO2 | 953
50 | Cc1ccc(-c2nnc(-c3cccc(S(=O)(=O)NCc4cccs4)c3)o2)cc1 | 1030
51 | CCOC(=O)C1=C(CN2CCOCC2)NC(=O)NC1c1ccc(OC(C)C)cc1 (stereo not drawn) | 628
52 | O=C(Cc1csc2nc(-c3ccccc3)cn12)NC1CCCCCC1 | 808
53 | CCOC(=O)c1cc(C)n(CC(=O)N2CCOCCNC(=O)CC2)c1C | 652
54 | COc1ccc(N2CCN(CC(O)c3ccc(C)cc3)CC2)cc1 (stereo not drawn) | 677
55 | CCOc1ccc(NC(=O)c2cccc(-n3cnnn3)c2)cc1 | 737
56 | O=C(Cc1ccccc1Cl)NC1CCN(c2cc(-c3cccs3)[nH]n2)C1 (stereo not drawn) | 738
57 | O=C(Cc1ccsc1)Nc1cccc(-c2nnc3n2CCCC3)c1 | 668
58 | O=C(Nc1ccc(Nc2ccncc2)cc1)c1ccc(Nc2ccnc3ccc([N+](=O)[O-])cc23)cc1[N+](=O)[O-] | 651
59 | COc1ccc(OCC(=O)Nc2ccc3c(c2)CCCN3C(=O)C2CC2)cc1 | 852
60 | COc1ccccc1CNC(=O)C1CCN(c2cc(N3CCOCC3)ncn2)CC1 | 619

More lines, now with the values ahead:

Row | RP-LC retention time [s] | SMILES
61 | 815 | CCOc1ccc(-c2ccc(=O)n(CCc3nc(-c4ccc(F)cc4)no3)n2)cc1
62 | 902 | COc1ccc(Cl)cc1NC(=O)Cc1csc2nc(-c3ccccc3)cn12
63 | 794 | CC1CCN(C(=O)CCNc2c(-c3ccc(F)cc3)nc3cnccn23)CC1
64 | 935 | CCc1ccc(C2=C(C)C(N3CCC(NC(=O)CCC(C)C)CC3)=NS2(=O)=O)cc1
65 | 749 | CCc1cc(=O)n(CC(=O)NCc2ccc(F)cc2Cl)c(N2CCOCC2)n1
66 | 654 | CC(=O)c1cccc(NC(=O)Nc2cccc(-c3ccc(N4CCCC4)nn3)c2)c1
67 | 654 | O=C(Cn1c(=O)c2nncn2c2ncccc21)NCc1cc(F)ccc1F
68 | 713 | NC(=O)Cn1cnc2c(-c3ccc(F)cc3)nsc2c1=O
69 | 972 | CCOc1ccc(-c2cn3ccn(-c4cc(C)c(Cl)cc4OC)c(=O)c3n2)cc1
70 | 798 | Cc1ccc(CNC(=O)Cn2ccc3ccc(-c4nnc(C)o4)cc32)cc1
71 | 650 | Cc1cccc(-c2nc3cnccn3c2NCCC(=O)N2CCCC2)c1
72 | 1140 | Cc1cc(OCC(=O)N2CCCC(C)C2)nc(-c2ccc(Cl)cc2)n1 (stereo not drawn)
73 | 946 | O=C(NCc1ccc(F)cc1)N1CCCC1c1nc(-c2cccc(F)c2)no1 (stereo not drawn)
74 | 943 | COc1ccc(NC(=O)Cn2c(C)cc(-c3nnc(-c4ccccc4)o3)c2C)cc1F
75 | 984 | COc1ccc(-c2noc(-c3cccn3CC(=O)NCc3ccco3)n2)cc1F
76 | 707 | Cc1nc2c(NC(=O)NCc3ccccc3)cccn2n1
77 | 1220 | Cc1ccccc1-c1noc(Cn2c(=O)n(CC(C)C)c(=O)c3ccccc32)n1
78 | 671 | CC(=O)c1ccc(NC(=O)Cn2cnc3nc4c(cc3c2=O)CCCC4)cc1
79 | 1050 | Cn1nc(C(=O)N2CCC(Oc3ccc(-c4noc(C5CC5)n4)cc3)C2)c2ccccc21 (stereo not drawn)
80 | 1040 | CCCn1ccc2oc(C)c(C(=O)NCc3cc(F)ccc3F)c2c1=O
81 | 820 | Cc1ccc(-n2nc(N3CCN(C(=O)Nc4cccc(C)c4)CC3)ccc2=O)cc1
82 | 757 | O=C(Cc1nc(-c2ccccc2)n[nH]1)Nc1ccc(F)c(F)c1
83 | 823 | CC(C)NC(=O)Cn1nc2c3cc(-c4ccc(Cl)cc4)nn3ccn2c1=O
84 | 1100 | CCNS(=O)(=O)c1cccc(-c2nc(-c3ccc(C)cc3)no2)c1
85 | 679 | O=C(CCn1cnc2c(-c3ccccc3)noc2c1=O)NCCCN1CCc2ccccc2C1
86 | 835 | Cc1oc(-c2ccc(Cl)cc2)nc1CN1CCCC(C(=O)NC2CCCCC2C)C1 (stereo not drawn)
87 | 1170 | Cc1ccc(NC(=O)Cn2nc(N3CCCCCC3)c3ccccc3c2=O)cc1F
88 | 853 | CC1=C(c2ccc(C)c(C)c2)S(=O)(=O)N=C1N1CCCN(C(=O)NCC(C)C)CC1

— the METLIN SMRT retention time set (Domingo-Almenara et al. 2019)
